This is an account of results in publication PMC5406237 (Chemical research in toxicology, 2010).

One data set has as its system plasma proteins. To be noted: cited from earlier work.
The target of data set [1] is CYP2C9 present in the human liver microsomes (Homo sapiens, UniProt P11712). Format: biochemical. Conditions: for Ki fold above the Km for S-warfarin: human liver microsomes, marker Km. Background: Microsomes from liver hold many membrane-bound enzymes, among them those of drug oxidation.
Chain of CYP2C9 present in the human liver microsomes (P11712 whole entry): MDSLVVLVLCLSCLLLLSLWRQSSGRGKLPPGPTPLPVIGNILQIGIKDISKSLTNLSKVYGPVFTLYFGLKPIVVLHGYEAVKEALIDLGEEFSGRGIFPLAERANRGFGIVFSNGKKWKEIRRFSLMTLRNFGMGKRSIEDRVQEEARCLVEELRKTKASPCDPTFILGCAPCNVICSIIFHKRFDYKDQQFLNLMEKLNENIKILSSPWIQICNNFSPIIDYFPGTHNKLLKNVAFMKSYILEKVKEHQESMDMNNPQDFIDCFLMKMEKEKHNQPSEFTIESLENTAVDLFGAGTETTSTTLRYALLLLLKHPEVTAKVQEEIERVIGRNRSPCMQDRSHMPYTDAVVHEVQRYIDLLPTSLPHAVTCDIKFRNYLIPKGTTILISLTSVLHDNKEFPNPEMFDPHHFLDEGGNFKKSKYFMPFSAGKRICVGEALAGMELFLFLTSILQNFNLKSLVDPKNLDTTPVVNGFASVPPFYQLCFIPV
For data set [2], the target named is T1, recombinant CYP2C9*1 (Homo sapiens, UniProt P11712). As to the kind of experiment: Steady-state inhibition of S-warfarin metabolism by recombinant CYP2C9. Format: biochemical.
For data set [3], the target named is T1, recombinant CYP2C9*1. Description: Uninhibited steady-state metabolism of S-warfarin by recombinant CYP2C9. To be noted: S-7-hydroxywarfarin formation.
Data set [4] concerns the target T1, recombinant CYP2C9*1.
Data set [5] has as its target T2, pooled human liver microsomes (Homo sapiens, UniProt P11712).
Data set [6] has as its target T2, pooled human liver microsomes. Conditions: 7-hydroxywarfarin formation.
The subject of another data set is CYP2C9. To be noted: binds and inhibits CYP2C9, not metabolized; cited from earlier work.
The next data set deals with Recombinant CYP2C9 (Homo sapiens, UniProt P11712). As to the kind of experiment: P450-Glo IC50 screen of recombinant CYP2C9 activity. Format: biochemical. To be noted: relative to racemic warfarin IC50.
Chain of Recombinant CYP2C9 (P11712 whole entry): as above
[7] abbreviates: 2.0 mg/mL microsomal protein, marker 7-hydroxywarfarin formation.
The mark [8] stands for this setting: results based on S-6-hydroxywarfarin formation.

Where two headings read alike, the source gives them in different places.

T2 sequence (P11712 whole entry): as above

Consider `CC(=O)CC(c1ccc(O)cc1)c1c(O)c2ccccc2oc1=O` (centres unmarked) [4′OHWAR, 4′-hydroxywarfarin], for which the “affinity for human plasma albumin” value with plasma proteins is “comparable to that of warfarin”. In addition, in [1] (setting [7]), the mechanism result is “competitive”. The “Ki fold above the Km for S-warfarin” value in data set [1] is listed as “approximately 3 fold”.

For `CC(=O)C(O)C(c1ccccc1)c1c(O)c2ccccc2oc1=O` (centres unmarked) [10OHWAR, 10-hydroxywarfarin], the “affinity fold higher than S-warfarin” value at recombinant CYP2C9*1 [2] (abstract statement) is reported as “approximately 3 fold”. The “Ki fold lower than the Km for S-warfarin” value on recombinant CYP2C9*1 [2] (recombinant CYP2C9) is “approximately 2.5 fold”. Besides, the “Ki fold lower than the observed microsomal Km for S-warfarin” value in data set [1] is 2.4 fold. Besides, the mechanism entry in [1] (setting [7]) is listed as “competitive”.

For `CC(=O)CC(c1ccccc1)c1c(O)c2cccc(O)c2oc1=O` (centres unmarked) [8OHWAR, 8-hydroxywarfarin], in the data set with plasma proteins, the “fold lower affinity for plasma proteins than warfarin” value (from here on “fold lower affinity”) is listed as 3- to 4 fold. Also, the mechanism entry in data set [1] (setting [7]) is recorded as “competitive”. In addition, in data set [1], the “Ki fold above the Km for S-warfarin” value is given as “approximately 3 fold”.

On to `CC(=O)C[C@@H](c1ccccc1)c1c(O)c2ccccc2oc1=O` [S-warfarin], for which the Km on recombinant CYP2C9*1 [3] was found to be 2.3 µM; on recombinant CYP2C9*1 [4] it was 3.3 µM; in [5] it was 7.5 µM; in data set [6], 5.2 µM. Moreover, the Vmax on recombinant CYP2C9*1 [3] is 68 pmol/min/nmol P450; in data set [6], 173 pmol/min/mg protein.

Turning to `CC(=O)CC(c1ccccc1)c1c(O)c2cc(O)ccc2oc1=O` (centres unmarked) [6OHWAR, 6-hydroxywarfarin], the “inhibition of S-warfarin metabolism” value at recombinant CYP2C9*1 [2] (up to 170 μM inhibitor) is on record as “no inhibition”. For the same molecule, the “fold lower affinity” value in the data set with plasma proteins is listed as 3- to 4 fold. In [1] (setting [7]), the mechanism result is “competitive”. Moreover, in data set [1], the “Ki fold above the Km for S-warfarin” value is “approximately 32 fold”.

With `CC(=O)C[C@H](c1ccccc1)c1c(O)c2ccccc2oc1=O` [R-warfarin], the inhibition constant (Ki) with CYP2C9 is […].

`CC(=O)CC(c1ccccc1)c1c(O)c2ccc(O)cc2oc1=O` (centres unmarked) [7OHWAR, 7-hydroxywarfarin]: on Recombinant CYP2C9, the “IC50 fold higher than that observed for warfarin” value is “approximately 8 fold”. Further, the mechanism result (at recombinant CYP2C9*1 [2] (setting [8]); in [1] (setting [8])) was “competitive” each time. Also, the “fold lower affinity” value in the data set with plasma proteins is 3- to 4 fold. For the same molecule, the “Ki fold above the Km for S-warfarin” value in [1] is on record as 8.5 fold.

A word on the Km: it is the substrate concentration at which the rate is half of its maximum. A word on the Ki: it is a measure of affinity in units of concentration, obtained from inhibition or displacement.
